Measured values reported in ChEMBL document CHEMBL1201862, “PubChem BioAssay data set” (2004).
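All cell lines were grown in 96-well plates and treated with compound for 48 hours. Here, GI50 denotes the concentration required for 50% inhibition of growth.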 The source made the active and inactive calls. No stated cut-off is given here; in the data, active = GI50 up to about 1.1 µM and inactive = higher.

Legend:
Assay in all cases: NCI anticancer screen, dose series, 48 h
U-251 = test system: U-251
DLD-1 = test system: DLD-1
UO-31 = test system: UO-31
IGROV-1 = test system: IGROV-1
786-0 = test system: 786-0
SF-539 = test system: SF-539
CAKI-1 = test system: CAKI-1
HT-29 = test system: HT-29
NCI-H226 = test system: NCI-H226
MOLT-4 = test system: MOLT-4
HCC 2998 = test system: HCC 2998
DMS-114 = test system: DMS-114
M14 = test system: M14
SNB-78 = test system: SNB-78
CCRF-CEM = test system: CCRF-CEM
HCT-116 = test system: HCT-116
SNB-75 = test system: SNB-75
NCI-H522 = test system: NCI-H522
RXF 393 = test system: RXF 393
SF-268 = test system: SF-268
HCT-15 = test system: HCT-15
LXFL 529 = test system: LXFL 529
M19-MEL = test system: M19-MEL
SK-MEL-28 = test system: SK-MEL-28
OVCAR-4 = test system: OVCAR-4
Malme-3M = test system: Malme-3M
COLO 205 = test system: COLO 205
HOP-62 = test system: HOP-62
OVCAR-5 = test system: OVCAR-5
LOX IMVI = test system: LOX IMVI
KM12 = test system: KM12
OVCAR-3 = test system: OVCAR-3
NCI-H23 = test system: NCI-H23
K562 = test system: K562
HOP-18 = test system: HOP-18
EKVX = test system: EKVX
SW-620 = test system: SW-620
OVCAR-8 = test system: OVCAR-8
SK-MEL-5 = test system: SK-MEL-5
SN12C = test system: SN12C
UACC-62 = test system: UACC-62
KM-20L2 = test system: KM-20L2
RPMI-8226 = test system: RPMI-8226
NCI-H460 = test system: NCI-H460
UACC-257 = test system: UACC-257
HOP-92 = test system: HOP-92
DMS-273 = test system: DMS-273
A498 = test system: A498
SK-OV-3 = test system: SK-OV-3
A549 = test system: A549
SK-MEL-2 = test system: SK-MEL-2
ACHN = test system: ACHN
SNB-19 = test system: SNB-19
TK-10 = test system: TK-10
SF-295 = test system: SF-295
HL-60 = test system: HL-60

For `CCCCN(CC)C(=O)C(=O)C1C(=O)Nc2ccccc2[S+]1[O-]` (stereo not given), which GI50 (U-251) is on record?
The GI50 was > 100 µM (inactive).

What about the GI50 (DLD-1) of the same molecule?
The GI50 was > 100 µM (inactive).

What about the GI50 (UO-31) of the same molecule?
The GI50 was > 100 µM (inactive).

What about the GI50 (IGROV-1) of the same molecule?
The GI50 was > 100 µM (inactive).

What about the GI50 (786-0) of the same molecule?
The GI50 was > 100 µM (inactive).

And the GI50 (SF-539)?
Its GI50 is > 100 µM (inactive).

And the GI50 (CAKI-1)?
Its GI50 is > 100 µM (inactive).

And the GI50 (HT-29)?
Its GI50 is > 100 µM (inactive).

And the GI50 (NCI-H226)?
Its GI50 is > 100 µM (inactive).

What about the GI50 (MOLT-4) of the same molecule?
The GI50 was > 100 µM (inactive).

And the GI50 (HCC 2998)?
Its GI50 is > 100 µM (inactive).

What about the GI50 (DMS-114) of the same molecule?
The GI50 was > 100 µM (inactive).

And the GI50 (M14)?
The GI50 was > 100 µM (inactive).

What about the GI50 (SNB-78) of the same molecule?
The GI50 was > 100 µM (inactive).

And the GI50 (CCRF-CEM)?
Its GI50 is > 100 µM (inactive).

And the GI50 (HCT-116)?
The GI50 was > 100 µM (inactive).

What about the GI50 (SNB-75) of the same molecule?
Its GI50 is > 100 µM (inactive).

And the GI50 (NCI-H522)?
Its GI50 is > 100 µM (inactive).

And the GI50 (RXF 393)?
The GI50 was > 100 µM (inactive).

What about the GI50 (SF-268) of the same molecule?
Its GI50 is > 100 µM (inactive).

And the GI50 (HCT-15)?
The GI50 was greater than 100 µM.

And the GI50 (LXFL 529)?
The GI50 was > 100 µM (inactive).

And the GI50 (M19-MEL)?
The GI50 was > 100 µM (inactive).

What about the GI50 (SK-MEL-28) of the same molecule?
The GI50 was > 100 µM (inactive).

What about the GI50 (OVCAR-4) of the same molecule?
The GI50 was > 100 µM (inactive).

What about the GI50 (Malme-3M) of the same molecule?
Its GI50 is > 100 µM (inactive).

And the GI50 (COLO 205)?
Its GI50 is > 100 µM (inactive).

And the GI50 (HOP-62)?
The GI50 was > 100 µM (inactive).

What about the GI50 (OVCAR-5) of the same molecule?
The GI50 was > 100 µM (inactive).

And the GI50 (LOX IMVI)?
The GI50 was > 100 µM (inactive).

What about the GI50 (KM12) of the same molecule?
The GI50 was > 100 µM (inactive).

And the GI50 (OVCAR-3)?
The GI50 was > 100 µM (inactive).

And the GI50 (NCI-H23)?
Its GI50 is > 100 µM (inactive).

And the GI50 (K562)?
The GI50 was > 100 µM (inactive).

What about the GI50 (HOP-18) of the same molecule?
The GI50 was > 100 µM (inactive).

And the GI50 (EKVX)?
Its GI50 is 55.6 µM (inactive).

And the GI50 (SW-620)?
The GI50 was > 100 µM (inactive).

What about the GI50 (OVCAR-8) of the same molecule?
Its GI50 is > 100 µM (inactive).

And the GI50 (SK-MEL-5)?
The GI50 was > 100 µM (inactive).

What about the GI50 (SN12C) of the same molecule?
Its GI50 is > 100 µM (inactive).

What about the GI50 (UACC-62) of the same molecule?
The GI50 was > 100 µM (inactive).

And the GI50 (KM-20L2)?
The GI50 was > 100 µM (inactive).

What about the GI50 (RPMI-8226) of the same molecule?
Its GI50 is > 100 µM (inactive).

What about the GI50 (NCI-H460) of the same molecule?
Its GI50 is > 100 µM (inactive).

What about the GI50 (UACC-257) of the same molecule?
Its GI50 is > 100 µM (inactive).

And the GI50 (HOP-92)?
Its GI50 is > 100 µM (inactive).

What about the GI50 (DMS-273) of the same molecule?
Its GI50 is > 100 µM (inactive).

And the GI50 (A498)?
The GI50 was > 100 µM (inactive).

What about the GI50 (SK-OV-3) of the same molecule?
Its GI50 is > 100 µM (inactive).

What about the GI50 (A549) of the same molecule?
The GI50 was > 100 µM (inactive).

And the GI50 (SK-MEL-2)?
Its GI50 is > 100 µM (inactive).

And the GI50 (ACHN)?
The GI50 was > 100 µM (inactive).

What about the GI50 (SNB-19) of the same molecule?
Its GI50 is > 100 µM (inactive).

And the GI50 (TK-10)?
The GI50 was > 100 µM (inactive).

`COc1ccc(S(=O)(=O)N(CC(=O)O)c2ccccc2)cc1` was tested. Which GI50 (U-251) did it give?
The GI50 was > 100 µM (inactive).

What about the GI50 (DLD-1) of the same molecule?
The GI50 was > 100 µM (inactive).

And the GI50 (UO-31)?
The GI50 was > 100 µM (inactive).

What about the GI50 (IGROV-1) of the same molecule?
The GI50 was > 100 µM (inactive).

And the GI50 (786-0)?
Its GI50 is > 100 µM (inactive).

And the GI50 (SF-539)?
The GI50 was > 100 µM (inactive).

And the GI50 (CAKI-1)?
Its GI50 is > 100 µM (inactive).

What about the GI50 (HT-29) of the same molecule?
The GI50 was > 100 µM (inactive).

What about the GI50 (MOLT-4) of the same molecule?
Its GI50 is > 100 µM (inactive).

And the GI50 (HCC 2998)?
The GI50 was > 100 µM (inactive).

And the GI50 (M14)?
The GI50 was > 100 µM (inactive).

And the GI50 (CCRF-CEM)?
Its GI50 is > 100 µM (inactive).

And the GI50 (SNB-75)?
The GI50 was 67.3 µM (inactive).

What about the GI50 (NCI-H522) of the same molecule?
The GI50 was > 100 µM (inactive).

What about the GI50 (SF-295) of the same molecule?
The GI50 was > 100 µM (inactive).

What about the GI50 (RXF 393) of the same molecule?
Its GI50 is > 100 µM (inactive).

What about the GI50 (SF-268) of the same molecule?
The GI50 was > 100 µM (inactive).

What about the GI50 (HCT-15) of the same molecule?
The GI50 was greater than 100 µM.

And the GI50 (LXFL 529)?
The GI50 was > 100 µM (inactive).

And the GI50 (M19-MEL)?
The GI50 was > 100 µM (inactive).

And the GI50 (SK-MEL-28)?
Its GI50 is > 100 µM (inactive).

What about the GI50 (OVCAR-4) of the same molecule?
The GI50 was > 100 µM (inactive).

And the GI50 (Malme-3M)?
Its GI50 is > 100 µM (inactive).

And the GI50 (COLO 205)?
Its GI50 is > 100 µM (inactive).

And the GI50 (OVCAR-5)?
The GI50 was > 100 µM (inactive).

What about the GI50 (LOX IMVI) of the same molecule?
Its GI50 is > 100 µM (inactive).

And the GI50 (KM12)?
The GI50 was > 100 µM (inactive).

What about the GI50 (OVCAR-3) of the same molecule?
The GI50 was > 100 µM (inactive).

And the GI50 (NCI-H23)?
The GI50 was > 100 µM (inactive).

And the GI50 (K562)?
The GI50 was > 100 µM (inactive).

And the GI50 (HOP-18)?
The GI50 was > 100 µM (inactive).

What about the GI50 (EKVX) of the same molecule?
Its GI50 is > 100 µM (inactive).

And the GI50 (SW-620)?
The GI50 was > 100 µM (inactive).

What about the GI50 (OVCAR-8) of the same molecule?
Its GI50 is > 100 µM (inactive).

And the GI50 (SK-MEL-5)?
Its GI50 is > 100 µM (inactive).

And the GI50 (HL-60)?
Its GI50 is > 100 µM (inactive).

And the GI50 (SN12C)?
The GI50 was > 100 µM (inactive).

And the GI50 (UACC-62)?
The GI50 was > 100 µM (inactive).

What about the GI50 (KM-20L2) of the same molecule?
Its GI50 is > 100 µM (inactive).

And the GI50 (RPMI-8226)?
The GI50 was > 100 µM (inactive).

What about the GI50 (NCI-H460) of the same molecule?
The GI50 was > 100 µM (inactive).

And the GI50 (UACC-257)?
The GI50 was > 100 µM (inactive).

And the GI50 (HOP-92)?
Its GI50 is > 100 µM (inactive).

And the GI50 (DMS-273)?
The GI50 was > 100 µM (inactive).

What about the GI50 (A498) of the same molecule?
Its GI50 is > 100 µM (inactive).

And the GI50 (SK-OV-3)?
Its GI50 is > 100 µM (inactive).

What about the GI50 (A549) of the same molecule?
The GI50 was > 100 µM (inactive).

And the GI50 (SK-MEL-2)?
The GI50 was > 100 µM (inactive).

What about the GI50 (ACHN) of the same molecule?
The GI50 was > 100 µM (inactive).

What about the GI50 (SNB-19) of the same molecule?
Its GI50 is > 100 µM (inactive).

And the GI50 (TK-10)?
The GI50 was > 100 µM (inactive).
